Data: patent US10251902B2, “Pharmaceutical composition for treating or preventing neuropsychiatric disease, containing flavone-6-C-glucose derivatives as active ingredients” (priority 2013, dated 2019)

Key:
[1] = test system: model of memory impairment induced by scopolamine; assay: Y-maze test in scopolamine-treated mice; format: in vivo, ICR mice; conditions: donepezil 5 mg/Kg (Control 1), scopolamine 1 mg/Kg i.p.
Procedure: (§1) An experiment was conducted to confirm effects of swertisin or isoorientin, and extracts of Swertia pseudochinensis or Swertia japonica containing the same prepared in Examples 1 to 3 in treating dementia by using a model of memory impairment induced by scopolamine. Detailed method follows.
(§2) Six-week old ICR mice in about 26 g to 28 g (Orientbio Inc, Republic of Korea) were received water and feed without constraint and adapted for 5 days under an environment having about 23±1° C. of temperature, about 60±10% of humidity and 12-hour light/dark cycle (animal laboratory at College of Pharmacy, Kyung-Hee University), and then used for the experiment.
A Y-maze was prepared for the experiment. The Y-maze has 3 branches and each branch has 42 cm of length, 3 cm of width and 12 cm of height. Angle between any two arms is 120 degrees and the arms were made of black polyvinyl resin.
The mice prepared in the above 1) were separated into 5 groups (10 mice per each group) comprised of drug administration groups 1 and 2, and controls 1 to 3.
The swertisin prepared in Example 3 (8 mg) was dissolved in 4 mL of 10% Tween 80 (Polyoxyethylene sorbitan monooleate: Sigma, U.S.A.), and administered to the drug administration groups 1 and 2 in an amounts of 5 mg/Kg and 10 mg/Kg respectively. Meanwhile, 5 mg/Kg of donepezil was administered to the control 1, and 0.15 mL of 10% Tween 80 was administered to the controls 2 and 3 respectively.
About 30 minutes later, 1 mg/Kg of scopolamine, which was dissolved in distilled water, was intraperitoneally administered to the drug administration groups 1 and 2, and controls 1 and 2 (Ebert, U. et al., Eur. J. Clin. Invest., 28, pp. 944-949, 1998), and 0.9% of saline solution was intraperitoneally administered to the control 3.
After 30 minutes, mice of the drug administration groups 1 and 2, and the controls 1-3 were carefully located on each branches of the Y-maze, which was divided as A, B and C respectively, and let the mice move freely for 8 minutes, and then recorded branches where mice have entered. The entrance was recorded when the entire body (i.e. including the tail) has completely entered. It was also recorded when the mice entered again into the branch that the mice have entered before.
One point was scored when the mouse sequentially entered into 3 different branches (actual alternation). Alternation behavior is defined as sequentially entering into every 3 branch, and it was converted into % via Equation 1 below (Sarter, M. et al., Psychopharmacology., 94, pp. 491-495, […]).

[2] = test system: model of memory impairment induced by scopolamine; assay: Passive avoidance test in scopolamine-induced memory impairment model; format: in vivo, ICR mice; conditions: for Main Experiment / Passive Avoidance Learning: scopolamine 1 mg/Kg i.p.; for Main Experiment: latency 24 h after learning; for latency time extended compared to that of the control 2: main experiment, control 2 = scopolamine
Procedure: as §1, §2
An apparatus for measuring passive avoidance reaction was prepared. The apparatus has 2 separated chambers (the first and second chambers) and there is a guillotine-shaped passage that connects the first chamber and the second chamber. The first chamber was maintained brightly by using a light, and the second chamber was maintained darkly. A grid was installed on the floor of the second chamber. The grid generates 0.5 mA of electric shock for 3 seconds when the laboratory animal moved into the dark chamber.
About 30 minutes later, 1 mg/Kg of scopolamine, which was dissolved in distilled water, was intraperitoneally administered to the drug administration groups 1 to 4 and controls 1 and 2 (Ebert, U. et al., Eur. J. Clin. Invest., 28, pp 944-949, 1998), and 0.9% of saline solution was intraperitoneally administered to the control 3. After 30 minutes, passive avoidance learning was conducted on the drug administration groups 1-4 and controls 1-3. In detail, the mice were located in the first chamber (i.e. bright space) and the passage was open after about 20 seconds of observation time, and then latency time of the mice moving to the second chamber (i.e. dark space) was measured.
Twenty-four hours after the passive avoidance learning, a main experiment was conducted on the drug administration groups 1-4 and controls 1-3. Latency time of the mice of each group moving their 4 legs into the dark space after 10 seconds of observation time from opening of the guillotine-shaped passage was measured up to 300 seconds. It means that the passive avoidance learning and memory are better if the latency time is longer.
(§3) The passive avoidance test was conducted on the drug administration groups 1-4 and controls 1-3 in the same manner as the method explained above except that swertisin, which is one of the flavone-6-C-β-D-glucose derivatives prepared in Example 3, was dissolved in 10% Tween 80 and administered to the drug administration groups 1-4 in amounts of 1.25 mg/kg, 2.5 mg/kg, 5 mg/kg and 10 mg/kg respectively.
as §3, with “Experimental Example 1-1” for “the method explained above”, “isoorientin,” for “swertisin,”
(§4) The passive avoidance test was conducted on the drug administration groups 1-3 and controls 1-3 in the same manner as Experimental Example 1-1 except that a 70% ethanol extract of Swertia japonica prepared in Example 1, was dissolved in 10% Tween and administered to the drug administration groups 1-3 in amounts of 100 mg/kg, 200 mg/kg and 400 mg/kg respectively.
as §4, with “pseudochinensis” for “japonica”, “2,” for “1,”, “Tween 80” for “Tween”

COc1cc2c(cc1OC)C(=O)C(CC1CCN(Cc3ccccc3)CC1)C2 (stereo not drawn) [Donepezil, donepezil, reference compound]
Alternation Behavior (%) ([1]; Table 6, 8 minutes in Y-maze): 61.49 ± 5.447% | Total Entry ([1]; Table 7, total number of entry to each branch, 8 minutes): 29.30 ± 4.296 | Main Experiment ([2]; Table 2, Control 1 (Donepezil), dose not given): 138.7 ± 34.03 s | Passive Avoidance Learning ([2]; Table 2, Control 1 (Donepezil), dose not given, learning trial): 25.60 ± 10.83 s | Main Experiment ([2]; Table 3, Control 1 (Donepezil), dose not given): 127.8 ± 11.43 s | Passive Avoidance Learning ([2]; Table 3, Control 1 (Donepezil), dose not given, learning trial): 21.30 ± 4.964 s | Main Experiment ([2]; Table 4, Control 1 (Donepezil), dose not given): 169.6 ± 79.98 | Passive Avoidance Learning ([2]; Table 4, Control 1 (Donepezil), dose not given, learning trial): 26.40 ± 16.23 | Main Experiment ([2]; Table 5, Control 1 (Donepezil), dose not given): 159.6 ± 65.51 | Passive Avoidance Learning ([2]; Table 5, Control 1 (Donepezil), dose not given, learning trial): 28.10 ± 19.02

O=c1cc(-c2ccc(O)c(O)c2)oc2cc(O)c([C@@H]3O[C@H](CO)[C@@H](O)[C@H](O)[C@H]3O)c(O)c12 [isoorientin]
Main Experiment ([2]; Table 3, isoorientin 1.25 mg/kg, up to 300 seconds): 41.00 ± 7.988 s | Passive Avoidance Learning ([2]; Table 3, isoorientin 1.25 mg/kg, latency in learning trial): 43.60 ± 5.340 s | Main Experiment ([2]; Table 3, isoorientin 2.5 mg/kg, up to 300 seconds): 80.90 ± 19.44 s | Passive Avoidance Learning ([2]; Table 3, isoorientin 2.5 mg/kg, latency in learning trial): 40.00 ± 5.499 s | Main Experiment ([2]; Table 3, isoorientin 5 mg/kg, up to 300 seconds): 119.3 ± 73.43 s | Passive Avoidance Learning ([2]; Table 3, isoorientin 5 mg/kg, latency in learning trial): 35.20 ± 5.236 s | Main Experiment ([2]; Table 3, isoorientin 10 mg/kg, up to 300 seconds): 102.8 ± 15.89 s | Passive Avoidance Learning ([2]; Table 3, isoorientin 10 mg/kg, latency in learning trial): 26.80 ± 5.085 s | latency time extended compared to that of the control 2 ([2]; isoorientin 2.5 mg/Kg): about 2 fold | latency time extended compared to that of the control 2 ([2]; isoorientin 5 mg/Kg): about 3 fold | latency time extended compared to that of the control 2 ([2]; isoorientin 10 mg/Kg): about 2.5 fold
